{"source": "paper PMC10146558", "about": "“Highly Cytotoxic Copper(II) Mixed-Ligand Quinolinonato Complexes: Pharmacokinetic Properties and Interactions with Drug Metabolizing Cytochromes P450” (Pharmaceutics, 2023)", "key": {"human bactosomes CYP1A2": {"target": "T1, human bactosomes CYP1A2 (Homo sapiens, UniProt P05177)", "T1 construct": "purchased BD Biosciences (Franklin Lakes, NJ, USA); host or cells: bacterial membranes ('bactosomes')", "T1 sequence (P05177 1-516)": "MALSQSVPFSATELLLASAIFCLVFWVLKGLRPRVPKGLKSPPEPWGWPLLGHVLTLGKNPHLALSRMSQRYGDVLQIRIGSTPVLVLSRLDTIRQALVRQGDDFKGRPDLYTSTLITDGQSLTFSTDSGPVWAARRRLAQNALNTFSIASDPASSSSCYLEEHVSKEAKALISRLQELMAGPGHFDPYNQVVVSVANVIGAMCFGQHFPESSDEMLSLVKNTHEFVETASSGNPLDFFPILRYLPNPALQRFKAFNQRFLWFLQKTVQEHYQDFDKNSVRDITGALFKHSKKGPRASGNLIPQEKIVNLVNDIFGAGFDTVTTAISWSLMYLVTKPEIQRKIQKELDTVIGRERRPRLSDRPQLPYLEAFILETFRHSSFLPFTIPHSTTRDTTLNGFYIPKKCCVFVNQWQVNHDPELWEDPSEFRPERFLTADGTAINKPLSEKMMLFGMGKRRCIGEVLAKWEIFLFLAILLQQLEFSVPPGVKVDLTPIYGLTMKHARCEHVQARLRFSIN", "assay": "Isothermal titration calorimetry, bactosomes CYP1A2", "assay_type": "binding", "details": "25 °C, 100 mM phosphate buffer pH 7.4, 1% DMSO", "method": "(§1) The interactions of the compounds with selected forms of cytochrome P450, i.e., human bactosomes CYP1A2, CYP2A6, CYP3A4, and recombinant human CYP3A4, were studied using isothermal titration calorimetry (ITC). ITC experiments were performed at 25 °C with a Nano ITC Low Volume (TA Instruments, New Castle, DE, USA). During all measurements, 20 injections of 16µM of the studied compound (2.5 µL each) were titrated into 250 µL of protein (2 µM) with time intervals of 300 s and a stirring speed of 250 rpm. All ITC experiments were conducted with degassed buffered solutions (100 mM phosphate buffer, pH 7.4) in the presence of 1% DMSO. Control experiments included the titration of each complex solution into a buffer. The corrected data refer to experimental data after subtraction of the buffer control data from the compounds data. The resulting thermograms were analysed using the “Independent” model within the NanoAnalyze software (TA Instruments, New Castle, DE, USA)."}, "[1]": {"assay": "Parallel artificial membrane permeability assay (PAMPA)", "assay_type": "in vitro ADME", "details": "category according to log Papp", "method": "Pharmacological properties of the complexes 1 and 2, including stability in plasma, microsomal stability, binding to plasma proteins, and permeability through an artificial membrane, were tested under in vitro conditions and according to methods described in previous reports. Analysis of the samples was performed using Agilent RapidFire 300 High-Throughput Mass Spectrometry System (Agilent Technologies, Wakefield, MA, USA) with subsequent detection using the mass spectrometer Qtrap 5500 (AB Sciex, Concord, Toronto, ON, Canada), abbreviation RF-MS. […]\nPAMPA was performed with the Millipore MultiScreen filter MultiScreen-IP Durapore 0.45-μm plates and receiver plates (Merck Millipore, Burlington, MA, USA). […] The permeation of compounds across a filter membrane (activation by 10% lecithin in dodecane) was quantified by RF/MS after 18 h incubation at room temperature. The apparent permeability, logPe, was calculated from the following equation: logPe = log{C× − ln(1 − drugA/drugE)}; C = (VA × VD)/{(VD + VA) × A × T}, where VD and VA are the volumes of the donor and acceptor compartments, respectively; A is the active surface area of the membrane; T is the time of the incubation in seconds; and drugA or drugE represents the concentration of the tested compounds in the acceptor compartment and in the solution in theoretical equilibrium."}, "[2]": {"assay": "Microsomal stability assay", "assay_type": "in vitro ADME", "details": "human liver microsomes, NADPH-generating system, 5.74 μM", "method": "Pharmacological properties of the complexes 1 and 2, including stability in plasma, microsomal stability, binding to plasma proteins, and permeability through an artificial membrane, were tested under in vitro conditions and according to methods described in previous reports. Analysis of the samples was performed using Agilent RapidFire 300 High-Throughput Mass Spectrometry System (Agilent Technologies, Wakefield, MA, USA) with subsequent detection using the mass spectrometer Qtrap 5500 (AB Sciex, Concord, Toronto, ON, Canada), abbreviation RF-MS. The samples were aspirated directly from the plates into a 10 μL sample loop and passed through a C4 cartridge with solvent A (5% acetonitrile, 95% water, 0.1% formic acid) at a flow rate of 1.5 mL/min for 3 s. After the desalting step, analytes retained on the cartridge were eluted with solvent B (95% acetonitrile, 5% water, 0.1% formic acid) in the mass spectrometer at a flow rate of 0.4 mL/min for 5 s. The mass spectrometry of the samples was carried out using electrospray ionisation in the positive ion mode. Daughter ion peaks were identified using a multiple-reaction monitoring protocol.\nAccording to the protocol, reaction mixtures included tested compound (5.74 μM), human liver microsomes, NADPH-generating system consisting of NADP^+, isocitrate dehydrogenase, isocitric acid, and MgSO4 in 100 mM K/PO4 buffer. Assay was performed at 0, 15, 30, and 60 min. Reactions were terminated using acetonitrile–methanol (2:1) mixture. After centrifugation, the supernatant was lyophilized and analysed by RF-MS. The values of intrinsic clearance were calculated using the formula: CLint = 0.693/t1/2/mg microsome protein per mL of reaction."}, "human bactosomes CYP2A6": {"target": "T2, human bactosomes CYP2A6 (Homo sapiens, UniProt P11509)", "T2 construct": "purchased BD Biosciences (Franklin Lakes, NJ, USA); host or cells: bacterial membranes ('bactosomes')", "T2 sequence (P11509 1-494)": "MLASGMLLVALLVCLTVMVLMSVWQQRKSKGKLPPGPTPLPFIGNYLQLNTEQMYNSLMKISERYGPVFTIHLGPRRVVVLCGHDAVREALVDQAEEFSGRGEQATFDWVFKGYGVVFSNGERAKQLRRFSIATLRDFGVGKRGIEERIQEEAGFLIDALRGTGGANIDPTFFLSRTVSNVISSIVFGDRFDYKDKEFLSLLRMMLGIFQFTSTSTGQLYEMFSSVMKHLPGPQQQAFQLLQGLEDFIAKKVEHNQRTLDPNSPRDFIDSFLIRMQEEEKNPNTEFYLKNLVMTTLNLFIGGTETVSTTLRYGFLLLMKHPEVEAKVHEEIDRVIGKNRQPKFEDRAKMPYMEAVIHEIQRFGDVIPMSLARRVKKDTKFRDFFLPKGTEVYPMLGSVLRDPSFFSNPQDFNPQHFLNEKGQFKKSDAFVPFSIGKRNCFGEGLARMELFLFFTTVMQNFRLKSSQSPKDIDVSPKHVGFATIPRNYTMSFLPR", "assay": "Isothermal titration calorimetry, bactosomes CYP2A6", "assay_type": "binding", "details": "25 °C; for n, CYP2A6B: ITC stoichiometry, pH 7.4; for Ka, CYP2A6B / ΔG, CYP2A6B / ΔH, CYP2A6B / ΔS, CYP2A6B / Kd: ITC, pH 7.4, 1% DMSO; for Kd: read-out: Kd, CYP2A6B", "method": "as §1"}, "[3]": {"tested_on": "human liver microsomal cytochrome P450s", "details": "pH 7.4"}, "[4]": {"tested_on": "human liver microsomal cytochrome P450s", "assay": "Difference spectra (UV-visible spectral titration) with human liver microsomes", "details": "read-out: Ks (spectral binding constant); spectral differences at 386 nm, CYP 1 µM, pH 7.4, room temperature"}}, "note": "Values joined by “and” are separate entries in the source; they are usually repeats but may differ in a detail not shown here. Equal entries are not always repeated. Where two headings read alike, the source gives them in different places."}
{"smiles": "Cc1cc2cccnc2c2ncccc12.O.O=[N+]([O-])[O-].O=c1c([O-])c(-c2ccccc2)[nH]c2ccccc12.[Cu+2]", "note": "[complex 1]", "values": [{"measurement": "ITC interaction with CYP1A2B", "setting": "human bactosomes CYP1A2", "result": "no interaction"}, {"measurement": "PAMPA Category", "setting": "[1]", "result": "Low (those with log Papp < −5 were considered poorly permeable)"}, {"measurement": "% Compound remaining, Microsomal stability, 15 min", "setting": "[2]", "result": "99.4 ± 3.5", "unit": "%"}, {"measurement": "% Compound remaining, Microsomal stability, 30 min", "setting": "[2]", "result": "80.7 ± 2.8", "unit": "%"}, {"measurement": "% Compound remaining, Microsomal stability, 60 min", "setting": "[2]", "result": "78% and 78.1 ± 1.7%"}, {"measurement": "n, CYP2A6B", "setting": "human bactosomes CYP2A6", "result": 0.801}, {"measurement": "Ka, CYP2A6B", "setting": "human bactosomes CYP2A6", "result": "1.04e+06", "unit": "M⁻¹"}, {"measurement": "ΔG, CYP2A6B", "setting": "human bactosomes CYP2A6", "result": "−40,050.9 J/mol"}, {"measurement": "ΔH, CYP2A6B", "setting": "human bactosomes CYP2A6", "result": -7.603, "unit": "kcal/mol"}, {"measurement": "ΔS, CYP2A6B", "setting": "human bactosomes CYP2A6", "result": 27.64, "unit": "J/mol.K"}, {"measurement": "Kd", "setting": "human bactosomes CYP2A6", "result": 0.962, "unit": "µM"}, {"measurement": "Kd", "setting": "[3]", "result": "7.59 ± 1.8", "unit": "µM"}]}
{"smiles": "Cc1cc2cccnc2c2ncccc12.F[B-](F)(F)F.O.O=c1c([O-])c(-c2ccccc2)[nH]c2ccccc12.[Cu+2]", "note": "[complex 2]", "values": [{"measurement": "ITC interaction with CYP1A2B", "setting": "human bactosomes CYP1A2", "result": "no interaction"}, {"measurement": "PAMPA Category", "setting": "[1]", "result": "Low (those with log Papp < −5 were considered poorly permeable)"}, {"measurement": "Kd", "setting": "[4]", "result": "8.56 ± 1", "unit": "µM"}, {"measurement": "% Compound remaining, Microsomal stability, 15 min", "setting": "[2]", "result": "76.5 ± 2.7", "unit": "%"}, {"measurement": "% Compound remaining, Microsomal stability, 30 min", "setting": "[2]", "result": "76.2 ± 2.7", "unit": "%"}, {"measurement": "% Compound remaining, Microsomal stability, 60 min", "setting": "[2]", "result": "70% and 69.7 ± 2.4%"}, {"measurement": "n, CYP2A6B", "setting": "human bactosomes CYP2A6", "result": 1.071}, {"measurement": "Ka, CYP2A6B", "setting": "human bactosomes CYP2A6", "result": "3.12e+06", "unit": "M⁻¹"}, {"measurement": "ΔG, CYP2A6B", "setting": "human bactosomes CYP2A6", "result": "−37,070.9 J/mol"}, {"measurement": "ΔH, CYP2A6B", "setting": "human bactosomes CYP2A6", "result": -5.507, "unit": "kcal/mol"}, {"measurement": "ΔS, CYP2A6B", "setting": "human bactosomes CYP2A6", "result": 47.06, "unit": "J/mol.K"}, {"measurement": "Kd", "setting": "human bactosomes CYP2A6", "result": 0.321, "unit": "µM"}]}
